The target in assay [1] is T1, recombinant SNAP-Tag protein (Homo sapiens, UniProt P16455, A127T/A154D/C150Q/C62A/E30R/G131K/G132T/G153L/K125A/K32I/L33F/M134L/N157G/Q115S/Q116H/R128A/R135S/S151G/S152D/S159E).
T1 construct: His6 (N)
T1 sequence (P16455 1-182 E30R/K32I/L33F/C62A/Q115S/Q116H/K125A/A127T/R128A/G131K/G132T/M134L/R135S/C150Q/S151G/S152D/G153L/A154D/N157G/S159E): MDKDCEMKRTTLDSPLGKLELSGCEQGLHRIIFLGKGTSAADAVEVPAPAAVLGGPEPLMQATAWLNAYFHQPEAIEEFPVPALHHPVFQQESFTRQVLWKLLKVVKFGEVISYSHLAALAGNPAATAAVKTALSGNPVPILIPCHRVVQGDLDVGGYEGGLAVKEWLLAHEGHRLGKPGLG
In words: In vitro photocleavage assay (in-gel fluorescence). Conditions: recombinant SNAP-Tag labeled with probe, 0-10 minutes irradiation. Format: biochemical. As for the experimental part:
In vitro photocleavage assay: Recombinant purified His6-SNAP-Tag (20 μg) was incubated in 200 μL DPBS containing 5 μM PP1 for 1 hour at 37° C. Afterward, the reaction was divided into six 30 μL aliquots, placed on ice, and irradiated with 365 nm light using a SPECTROLINKER™ XL-1500a UV crosslinker (Spectroline, Spectronics, Corporation, Westbury, N.Y., United States of America). Samples were successively removed from irradiation after 0, 0.5, 1, 2.5, 5, 10 minutes of irradiation, diluted with loading buffer, and run on SDS-PAGE gel. Photocleavage was judged by in-gel fluorescence visualized using a ChemiDoc imaging system (Bio-Rad Laboratories, Hercules, Calif., United States of America) scanning for fluorescein.
A first generation P3 chemical proteomic method was designed to facilitate several activities, including: 1) specific probe labeling of POIs in live cells; 2) spatial and temporal control of probe photoactivation and proximal labeling; 3) subsequent enrichment and identification of labeled proteins after cell lysis. […] The BnG targeting element is connected to dual photoreactive elements, a central substituted nitroveratryl carbamate, and a tethered diazirine, which upon irradiation with 365 nm light will simultaneously trigger cleavage and diffusion of the probe away from the SNAP-Tag-POI, as well as unmasking of a highly reactive carbene, respectively. […]

Assay [2] concerns the target T2, SNAP-FLAG/α-FLAG antibody complex (Homo sapiens, UniProt P16455, A127T/A154D/C150Q/C62A/E30R/G131K/G132T/G153L/K125A/K32I/L33F/M134L/N157G/Q115S/Q116H/R128A/R135S/S151G/S152D/S159E).
T2 construct: host or cells: clarified lysate of HEK293T cells transiently or stably expressing SnapFlag
T2 sequence (P16455 1-182 E30R/K32I/L33F/C62A/Q115S/Q116H/K125A/A127T/R128A/G131K/G132T/M134L/R135S/C150Q/S151G/S152D/G153L/A154D/N157G/S159E limits assumed): T1 sequence (P16455 1-182 E30R/K32I/L33F/C62A/Q115S/Q116H/K125A/A127T/R128A/G131K/G132T/M134L/R135S/C150Q/S151G/S152D/G153L/A154D/N157G/S159E)
Put plainly: Proximity-labeling assay in cell lysate (anti-biotin / anti-mouse Western blot). It counts as biochemical. The note with it: 500 nM probe. As for the experimental part:
Proximity-labeling assays: Clarified cell lysate from HEK293T cells either transiently (see FIG. 4B) or stably (see FIG. 4C) expressing SNAP-Tag (NEB #N9183S; New England Biolabs, Ipswich, Mass., United States of America) or SnapFlag was normalized to 1 mg/mL and 250 μL aliquots incubated in a microcentrifuge tube with either 500 nM of PP1. PP2, or DMSO for 1 hour at 37° C. Washed anti-FLAG M2 affinity gel, 40 μL of a 50% slurry, was transferred to each reaction in 750 μL of DPBS and the resultant suspension left to rotate overnight at 4° C. (Sigma #A2220; Sigma-Aldrich, St. Louis, Mo., United States of America). Samples were then spun down at 4000×g, supernatant aspirated, and the resin washed with 1M urea in DPBS (1 mL×8) followed by DPBS (1 mL). After being resuspended in 100 μL of DPBS, the samples were placed on ice where they were irradiated with 365 nm light for 10 minutes (SPECTROLINKER™ XL-1500a UV crosslinker, Spectronics Corporation, Westbury, N.Y., United States of America). Once irradiated, the beads were washed with 100 mM pH 3.5 glycine buffer (100 μL×2) and DPBS (1 mL). To elute the remaining SNAP-FLAG and resin-bound FLAG-antibody the beads were boiled for 5 minutes at 95° C. in 20 μL 4×-loading buffer containing 8% SDS and 400 mM DTT. After which, 60 μL of DPBS was added and the suspension boiled at 95° C. for an additional 5 minutes. The samples were then run on SDS-PAGE gel and transferred to nitrocellulose where they were stained with anti-mouse IR dye (Li-cor #926-68072; Li-cor Biosciences, Lincoln, Nebr., United States of America) and streptavidin IR dye (Li-cor #926-32230; Li-cor Biosciences, Lincoln, Nebr., United States of America). Bands corresponding to biotinylated proteins and the FLAG antibody were visualized using an Odyssey infrared imager (Li-cor Biosciences, Lincoln, Nebr., United States of America).
To study if proximal protein interactors could be labeled in response to the dual photoactivation of PP1 in vitro, the interaction between SNAP-FLAG protein and an α-FLAG monoclonal antibody (mAb) was examined in cell lysate. In this assay, proximal biotinylation of both heavy and light chains of the antibody was expected, as well as self-labeling of the SNAP-FLAG protein, under conditions where the protein complex is formed and the PP1 probe is photoactivated. To test this hypothesis in the presence and absence of the protein-protein complex, SNAP protein that contained or lacked the FLAG epitope was treated with PP1 probe, followed by incubation with α-FLAG mAb, bead-based pulldown of the complexes, and subsequent photoactivation. […] The requirement for photoactivation of PP1, as well as a related probe PP2 (see FIG. 6) was tested by forming the SNAP-FLAG/α-FLAG complexes, and then comparing protein biotinylation with or without irradiation.
To study if proximal protein interactors could be labeled in response to the dual photoactivation of AC1 (see FIG. 12A) in vitro, the interaction between SNAP-FLAG protein and an α-FLAG monoclonal antibody (mAb) was examined in cell lysate. Briefly, 250 μL aliquots of cell lysate (HEK293T, SNAP-Flag) was incubated in a microcentrifuge tube with either 500 nM of photoprobe, or DMSO for 1 hour at 37° C. Washed anti-FLAG M2 affinity gel, 40 μL of a 50% slurry, was transferred to each reaction in 750 μL of DPBS and the resultant suspension left to rotate overnight at 4° C. (Sigma #A2220; Sigma-Aldrich, St. Louis, Mo., United States of America). Samples were then spun down at 4000×g, supernatant aspirated, and the resin washed with 1M urea in DPBS (1 mL×8) followed by DPBS (1 mL). After being resuspended in 250 μL of DPBS, the +UV samples were placed on ice where they were irradiated with 365 nm light for 10 minutes (SPECTROLINKER™ XL-1500a UV crosslinker, Spectronics Corporation, Westbury, N.Y., United States of America). Once irradiated, the beads were washed with 1 M Urea (1 mL×2) and DPBS (1 mL×2). […]
A general note: In western blotting, separated proteins are transferred to a membrane and probed.

For `COc1cc(C(C)OC(=O)NCCNC(=S)Nc2ccc3c(c2)C2(OC3=O)c3ccc(O)cc3Oc3cc(O)ccc32)c([N+](=O)[O-])cc1OCCCC(=O)NCc1ccc(COc2nc(N)nc3[nH]cnc23)cc1` (stereo not drawn) [PF-BnG], in assay [1], the “Fluorescence of labeled protein after irradiation at 365 nm (photocleavage)” value was “complete loss of fluorescence within minutes”.
In the case of `COc1cc(C(C)OC(=O)NCCCCC(NC(=O)CCC2(C)N=N2)C(=O)NCCNC(=O)CCCCC2SCC3NC(=O)NC32)c([N+](=O)[O-])cc1OCCCC(=O)NCCOCCOC(=O)NCc1ccc(COc2nc(N)nc3[nH]cnc23)cc1` (stereo not drawn) [PP2], the “Proximal labeling of heavy and light chains upon irradiation” value in assay [2] (365 nm light 10 minutes (FIG. 4C, FIG. 12B)) is “a discrete biotinylated band was formed on both heavy and light chains”. Also, in assay [2] (not exposed to 365 nm light (FIG. 4C)), the “Proximal labeling of heavy/light chain without irradiation” value is recorded as “No proximal labeling”.

For the origin of these results see patent publication US20230137943A1, “PHOTOPROXIMITY PROFILING OF PROTEIN-PROTEIN INTERACTIONS IN CELLS” (The University of Chicago, priority 2019, published 2023).
